Assays:
Settings in all cases: incubation time: 72 h
[1] = system: CAL-120; assay: normalised viability (% of control), CellTiter-Blue; higher = more viable cells (about 100 = DMSO control)
Method in brief: (§1)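 Breast cancer cell lines in 20 µl suspension were seeded onto 384-well plates pre-loaded with compound dissolved in 5 µl medium, then incubated 72 h. CellTiter-Blue reagent (2.5 µl) was added for 2 h at 37 °C and fluorescence read at 560/590 nm. Each plate was normalised to vehicle (100) and a positive kill control (0), with Z'-factor quality control. The value is normalised viability at one listed concentration of the series.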

[2] = system: BT-474; assay: as above
Method in brief: as §1

[3] = system: DU-4475; assay: as above
Method in brief: as §1

[4] = system: HCC1599; assay: as above
Method in brief: as §1

[5] = system: HCC1937; assay: as above
Method in brief: as §1

[6] = system: SK-BR-3; assay: as above
Method in brief: as §1

[7] = system: CAL-85-1; assay: as above
Method in brief: as §1

[8] = system: CAL-51; assay: as above
Method in brief: as §1

[9] = system: MDA-MB-231; assay: as above
Method in brief: as §1

[10] = system: Hs578T; assay: as above
Method in brief: as §1

[11] = system: MDA-MB-468; assay: as above
Method in brief: as §1

[12] = system: MDA-MB-436; assay: as above
Method in brief: as §1

[13] = system: HCC1143; assay: as above
Method in brief: as §1

[14] = system: MFM-223; assay: as above
Method in brief: as §1

[15] = system: BT-549; assay: as above
Method in brief: as §1

[16] = system: HDQ-P1; assay: as above
Method in brief: as §1

[17] = system: CAL-148; assay: as above
Method in brief: as §1

[18] = system: MDA-MB-453; assay: as above
Method in brief: as §1

[19] = system: SK-BR-3; assay: drug sensitivity score (DSS), CellTiter-Blue viability (DSS (AUC-based score)); higher = stronger viability inhibition; extreme values may be limits of the assay
Method in brief: (§2)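 Breast cancer cell lines (20 µl suspension) were seeded into 384-well plates holding compound in a 5- or 9-concentration series, then incubated 72 h. Viability was read with CellTiter-Blue: 2.5 µl reagent was added per well for 2 h at 37 °C, and fluorescence was read at 560/590 nm. Each plate was normalised to 0.1 % DMSO and a positive kill control. The drug sensitivity score was calculated from the area under the fitted dose-response curve.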

[20] = system: MDA-MB-468; assay: as above
Method in brief: as §2

[21] = system: HCC1143; assay: as above
Method in brief: as §2

[22] = system: MDA-MB-231; assay: drug sensitivity score (DSS), CellTox Green (DSS (AUC-based score)); higher = stronger drug effect (viability inhibition or cytotoxicity); extreme values may be limits of the assay
Method in brief: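 Plates with 384 wells held compound at 5 concentrations in 10-fold steps over a 10,000-fold range specific to each compound. Breast cancer cell lines were added in 20 µl suspension and incubated 72 h, then read for CellTox Green and CellTiter-Glo signals, with each plate normalised to 0.1 % DMSO and a positive kill control. The drug sensitivity score is based on the area under the fitted dose-response curve.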

CC(C)C[C@@H](C(=O)N[C@H](C(=O)OC1CCCC1)c1ccccc1)[C@H](O)C(=O)NO [Tosedostat]
normalised viability [%]
Settings | 3 nM | 10 nM | 30 nM | 100 nM | 1000 nM | 10000 nM
[1] | – | 82.4 | – | – | 65.4 | 55
[2] | – | 107 | – | – | 101 | 105
[3] | 95.7 | – | 98.6 | 68 | – | –
[4] | – | 96.5 | – | – | 81.6 | 106
[5] | – | 83.6 | – | – | 36.8 | 44.5
[6] | – | 96 | – | – | 85.7 | 63.4
[7] | 104 | – | 97.8 | 90.8 | – | –
[8] | 110 | – | 111 | 86.5 | – | –
[9] | – | 105 | – | – | 53.9 | 47.1
[10] | – | 96.9 | – | – | 86 | 70
[11] | – | 91.5 | – | – | 55.5 | 54.2
[12] | – | 92.4 | – | – | 73.1 | 75.3
[13] | – | 86.3 | – | – | 63.8 | 61.1
[14] | – | 91.6 | – | – | 64.1 | 32
[15] | – | 85 | – | – | 63 | 39.1
[16] | 116 | – | 100 | 111 | – | –
[17] | 100 | – | 96.3 | 81.2 | – | –
[18] | 119 | – | 101 | 60.4 | – | –

Settings | drug sensitivity score
[19] | 0
[20] | 13.2
[21] | 7.29
[22] | 26.6

COc1cc2/c(=N/c3ccc(Br)cc3F)nc[nH]c2cc1OCC1CCN(C)CC1 [Vandetanib]
normalised viability [%]
Settings | 3 nM | 10 nM | 30 nM | 100 nM | 1000 nM | 10000 nM
[1] | – | 117 | – | – | 98.2 | 17.6
[2] | – | 92.7 | – | – | 78.8 | 8.47
[3] | 108 | – | 102 | 106 | – | –
[4] | – | 88.7 | – | – | 107 | 58.5
[5] | – | 29.7 | – | – | 105 | 59.7
[6] | – | 100 | – | – | 96.4 | 14.3
[7] | 105 | – | 109 | 101 | – | –
[8] | 105 | – | 107 | 92.3 | – | –
[9] | – | 86 | – | – | 82.5 | 8.26
[10] | – | 108 | – | – | 92.8 | 50
[11] | – | 89.8 | – | – | 74.3 | 28
[12] | – | 76.4 | – | – | 35.7 | 30.1
[13] | – | 122 | – | – | 99.7 | 68.5
[14] | – | 100 | – | – | 61.6 | 30.6
[15] | – | 102 | – | – | 85.2 | 22.4
[16] | 76.8 | – | 72.1 | 59.3 | – | –
[17] | 96.2 | – | 93.2 | 92.8 | – | –
[18] | 89.6 | – | 94.4 | 91.4 | – | –

Settings | drug sensitivity score
[19] | 4.07
[20] | 6.11
[21] | 0.583
[22] | 3.15

COCC[n+]1c2c(n(Cc3cnccn3)c1C)C(=O)c1ccccc1C2=O [YM155]
normalised viability [%]
Settings | 3 nM | 10 nM | 30 nM | 100 nM | 1000 nM | 10000 nM
[1] | – | 9.27 | – | – | 2.84 | 3.14
[2] | – | 84.2 | – | – | 0.63 | 2.25
[3] | 124 | – | 95.8 | 57.8 | – | –
[4] | – | 62.8 | – | – | 3.16 | 2.97
[5] | – | 25 | – | – | 0.8 | 2.31
[6] | – | 44.3 | – | – | 0.33 | 0.6
[7] | 90.3 | – | 3.33 | 1.96 | – | –
[8] | 94.6 | – | 38.9 | 11.5 | – | –
[9] | – | 14.7 | – | – | 1.23 | 2.19
[10] | – | 84.8 | – | – | 19.6 | -0.04
[11] | – | 12.8 | – | – | 0.21 | 0.26
[12] | – | 34.5 | – | – | 0.04 | 0.01
[13] | – | 83.8 | – | – | 3.34 | 2.44
[14] | – | 62.8 | – | – | 12.2 | 6.53
[15] | – | 83 | – | – | 0.74 | -0.61
[16] | 80.4 | – | 16.8 | 0.96 | – | –
[17] | 98.3 | – | 1.65 | 1.83 | – | –
[18] | 70.7 | – | 18.7 | 18.2 | – | –

Settings | drug sensitivity score
[19] | 37
[20] | 40.3
[21] | 30.3
[22] | 30.1

Reference: the supplement of paper PMC4862054
